From patent publication US6383773B2, “Penicillin conversion” (Massachusetts Institute of Technology, priority 1998, dated 2002)

How the values were obtained:
[1] = target: T1, S. clavuligerus expandase (Streptomyces clavuligerus, UniProt P18548); experiment: Penicillin ring expansion by cell-free S. clavuligerus expandase extracts, paper disc-agar diffusion bioassay; type: biochemical; settings: 4 mg/ml extract protein; for Ring expansion, size of zones of inhibition: 2 mg/ml substrate (penicillin mX and octanoyl-6-APA 3 mg/ml), 2 hours; for Inhibition Zone Diameter: 2 hours of reaction, 250 μl in bioassay (E. coli ESS, penicillinase)
T1 construct: endogenous in cells; host or cells: S. clavuligerus mutant NP1, crude cell-free extract
Experimental: Preparation of Cell-free Extracts: Fermentation broths were centrifuged at 8,000×g and 4° C. for 10 min. Pellets were washed twice using 50 mM Tris-HCI supplemented with 0.1 mM dithiothreitol (DTT). The cells were resuspended in the same buffer and disrupted by four 25-sec. sonication treatments (power setting 5 and duty cycle 50%), in an ice-water bath using a Branson 350 sonifier (Branson Sonic Power Co., Danbury, Conn.). Cell debris was removed by centrifugation (14,000×g, 30 min., 4° C.). The resulting extracts containing 8-10 mg protein/ml were placed on ice and utilized immediately. Protein concentrations were measured using the Bio-Rad protein assay (Bio-Rad, Hercules, Calif.). Bovine serum albumin was used as standard.
Ring Expansion Reaction: We defined ring expansion reaction conditions as modifications of the standard reaction mixture for expandase reactions described by Maeda et al. (Maeda et al., Enzyme Microb. Technol. 17:231-34, 1995) except that penicillin G was used a substrate instead of penicillin N. Additions were made following the order established by Shen et al. (Shen et al., Enzyme Microb. Technol. 6:402-404, 1984. Reaction mixtures were incubated in test tubes (cell-free extract) or 250 ml baffled flasks (resting cells) at 220 rpm, 30° C. Reactions containing the protein extract were stopped at various times (see Table 1 and Figure Legends) by mixing 0.5 ml of assay solution with 0.5 ml of methanol. In the case of resting cells, samples were centrifuged to remove cells and supernatants were transferred to new tubes. Expandase activity was detected by paper disc-agar diffusion bioassay.
Detection of Expandase Activity: As mentioned above, expandase activity was detected by assaying production of a growth-inhibitory zone in a paper disc-agar diffusion bioassay. Paper discs were saturated with 200 μl of the reaction mixture (cell-free extracts or supernatant (resting cells) as follows. Two discs were superimposed and four 50 μl samples were applied. After each application, the discs were allowed to dry for 20 min at 37° C. under a laminar hood and, finally, they were placed on LB (1% tryptone, 0.5% NaCl, 0.5% yeast extract, 0.1% glucose) 0.8% agar medium seeded with E. coli ESS (a β-lactam supersensitive mutant), and the plates were incubated overnight at 37° C. The formation of DAOG and/or other cephalosporin(s) was determined by including 50,000 IU/ml of penicillinase (Difco Bacto penase concentrate, Difco Laboratories, Detroit, Mich.) in the assay plates. This penicillinase is a narrow spectrum β-lactamase that attacks penicillins but not cephalosporins. The diameters of zones of growth inhibition were measured and quantified with a calibration curve using DAOG as standard.
Ring Expansion of Other Penicillins by Cell-free Extracts: We tested our reaction conditions for their ability to support ring expansion on other penicillin substrates and found detectable expansion with each of the 15 substrates that we tested. […] The reactions contained 4 mg/ml extract (protein concentration), 50 mM Tris-HCl pH 7.4, 1.8 mM FeSO4, 1.28 mM α-ketoglutarate, 8 mM MgSO4, 8 mM KCl, 4 mM ascorbic acid, 14 mM DTT, and 2 mg/ml substrate (except for penicillin mX and octanoyl-6-APA, which were used at 3 mg/ml). Samples were centrifuged at 12K rpm for 5 minutes after 2 hours of reaction. 250 μl of reaction mixture was used in each bioassay.

C. acremonium expandase = target: T2, C. acremonium expandase (Hapsidospora chrysogena, UniProt P11935); settings: cited from earlier work; for substrate for expandase activity: crude extracts (Kohsaka et al. 1976; Demain et al.); for ring expansion: partially purified enzyme (Kupka et al. 1983)
T2 sequence (P11935 1-332): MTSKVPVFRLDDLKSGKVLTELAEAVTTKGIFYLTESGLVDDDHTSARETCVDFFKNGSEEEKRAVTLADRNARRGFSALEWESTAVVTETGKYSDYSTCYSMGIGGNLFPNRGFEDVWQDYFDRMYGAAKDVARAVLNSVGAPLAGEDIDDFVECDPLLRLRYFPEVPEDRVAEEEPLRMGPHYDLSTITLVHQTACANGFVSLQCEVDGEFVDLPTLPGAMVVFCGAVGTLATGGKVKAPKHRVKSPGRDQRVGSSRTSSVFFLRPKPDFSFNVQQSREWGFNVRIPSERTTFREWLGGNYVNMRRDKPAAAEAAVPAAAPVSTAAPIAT

[2] = target: T1, S. clavuligerus expandase; settings: literature reports (Jensen 1982; Dotzlaf 1989; Yeh 1994; Maeda 1995); cited from earlier work
[3] = system: S. clavuligerus or C. acremonium expandase enzymes; settings: cited from earlier work; for ability to expand: in vitro (Bowers 1984; Baldwin 1987; Shibata 1996); for in vitro substrate: suggested by Baldwin et al. 1987, subsequent work failed to confirm
[4] = target: T3, expandase from N. lactamdurans (Amycolatopsis lactamdurans, UniProt Q03047); experiment: Ring expansion by cell-free extracts of S. lividans containing pUL702-202a (Example 7); type: biochemical; settings: S. lividans pUL702-202a cell-free extract 6 mg/ml protein, substrate 5.6 mM
T3 construct: made in house; host or cells: S. lividans 1326 transformed with pUL702-202a, crude cell-free extract
Experimental: (§1) Microorganism, Medium and Culture Conditions: S. lividans 1326 was used in all experiments. Cultures were grown in 250 ml baffled flasks containing 40 ml of MST medium. Each flask was inoculated with 50 μl of a spore suspension (prepared and stored at −80° C. in 20% glycerol) and incubated at 30° C., 250 rpm, for 48 h.
(§2) Plasmids: The plasmid pUL702-202a was a gift from J. F. Martin (University of León, Spain). This vector harboured a 4.3 Kb BglII fragment containing the epimerase and expandase genes from Nocardia lactamdurans inserted at the BglII site on pIJ702. The plasmid pHJ11 was constructed by cloning a 3 Kb BglII fragment containing the expandase gene from S. clavuligerus 3585 into pIJ702 at the BglII site.
(§3) Ring Expansion Reaction: The ring expansion mixture contained 1.8 mM FeSO4, 1.28 mM α-ketoglutarate, 6 mg/ml protein (cell-free extract), 8 mM KCl, 8 mM MgSO4, 14 mM DTT and 50 mM TrisHCl (pH 7.4) in a final volume of 2.5 ml. Substrate concentration was 5.6 mM. Additions were made following the order established by Shen et al. (Enzyme Microb. Technol. 6:402-404, 1984). Reaction mixtures were incubated in test tubes at 220 rpm, 30° C. At different times, 0.5 ml samples were taken and the reaction was stopped by adding 0.5 ml of methanol. […] Biotransformation activity was detected by paper disc-agar diffusion bioassay. […]

[5] = target: T4, expandase from S. clavuligerus (Streptomyces clavuligerus, UniProt P18548); experiment: Ring expansion by cell-free extracts of S. lividans transformant pHJ11 (Example 7); type: biochemical; settings: pHJ11 cell-free extract 6 mg/ml protein, substrate 5.6 mM, after 4 h of reaction
T4 construct: made in house; host or cells: S. lividans 1326 transformed with pHJ11, crude cell-free extract
Experimental: as §1, §2, §3

T1 sequence (P18548 whole entry, the tested form may be a part): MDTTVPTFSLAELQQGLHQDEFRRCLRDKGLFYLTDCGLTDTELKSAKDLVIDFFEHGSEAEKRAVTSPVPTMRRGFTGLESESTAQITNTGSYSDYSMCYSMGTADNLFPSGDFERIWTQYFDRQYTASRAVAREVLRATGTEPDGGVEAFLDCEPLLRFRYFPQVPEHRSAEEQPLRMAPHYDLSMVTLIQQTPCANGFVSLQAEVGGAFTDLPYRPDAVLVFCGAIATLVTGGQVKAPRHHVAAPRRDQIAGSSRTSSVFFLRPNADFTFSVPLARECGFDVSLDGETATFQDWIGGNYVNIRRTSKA
T4 sequence (P18548 whole entry): as the sequence (P18548 whole entry, the tested form may be a part) above
T3 sequence (Q03047 whole entry): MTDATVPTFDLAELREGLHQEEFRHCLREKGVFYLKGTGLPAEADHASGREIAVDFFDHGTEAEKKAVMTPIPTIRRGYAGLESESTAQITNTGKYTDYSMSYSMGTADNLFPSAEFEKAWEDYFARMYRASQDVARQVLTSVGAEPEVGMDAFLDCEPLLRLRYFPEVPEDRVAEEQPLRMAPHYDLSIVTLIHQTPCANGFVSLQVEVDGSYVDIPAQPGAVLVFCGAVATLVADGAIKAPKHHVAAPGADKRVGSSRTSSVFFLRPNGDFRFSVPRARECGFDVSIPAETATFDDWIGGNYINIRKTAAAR

| Molecule | Ring expansion, size of zones of inhibition [1] | Inhibition Zone Diameter ([1]; 2 mg/ml substrate) [mm] | ring expansion [2] | other results |
| --- | --- | --- | --- | --- |
| CC1(C)SC2C(NC(=O)Cc3cccs3)C(=O)N2C1C(=O)O (stereo not shown) [2-Thiophenylacetyl-6-APA, 2-thiophenylacetyl-6-APA] | Large zones of inhibition | 32 |  |  |
| CC1(C)S[C@@H]2[C@H](N)C(=O)N2[C@H]1C(=O)O [6-aminopenicillanic acid] |  |  |  | substrate for expandase activity (C. acremonium expandase): not |
| CC1(C)S[C@@H]2[C@H](NC(=O)CCCCC(=O)O)C(=O)N2[C@H]1C(=O)O [Adipyl-6-APA, adipyl-6-APA] | intermediate size zones | 20 | not | ring expansion (C. acremonium expandase): does not expand; ability to expand [3]: some ability |
| CC1(C)S[C@@H]2[C@H](NC(=O)[C@H](N)c3ccccc3)C(=O)N2[C@H]1C(=O)O [Ampicillin, ampicillin] | intermediate size zones | 17 | not | ring expansion [4]: expansion was only observed when penicillin G was used as substrate; production of cephalosporins [5]: about 1.5 μg/ml; ring expansion (C. acremonium expandase): does not expand |
| CCCC(=O)NC1C(=O)N2C1SC(C)(C)C2C(=O)O (stereo not shown) [Butyryl-6-APA, butyryl-6-APA] | intermediate size zones | 17.5 | not |  |
| CCCCCCCCCC(=O)NC1C(=O)N2C1SC(C)(C)C2C(=O)O (stereo not shown) [Decanoyl-6-APA, decanoyl-6-APA] | smaller zones | 7 |  |  |
| CCCCCCC(=O)NC1C(=O)N2[C@@H]1SC(C)(C)[C@@H]2C(=O)O (stereo partly shown) [Heptanoyl-6-APA, heptanoyl-6-APA] | intermediate size zones | 16.5 |  |  |
| CCCCCC(=O)NC1C(=O)N2[C@@H]1SC(C)(C)[C@@H]2C(=O)O (stereo partly shown) [Hexanoyl-6-APA, hexanoyl-6-APA] | intermediate size zones | 19.5 |  |  |
| CCCCCCCCC(=O)NC1C(=O)N2C1SC(C)(C)C2C(=O)O (stereo not shown) [Nonanoyl-6-APA, nonanoyl-6-APA] | smaller zones | 10.5 |  |  |
| CCCCCCCC(=O)N[C@@H]1C(=O)N2[C@@H]1SC(C)(C)[C@@H]2C(=O)O [Octanoyl-6-APA, octanoyl-6-APA] | intermediate size zones |  |  | Inhibition Zone Diameter ([1]; 3 mg/ml substrate): 16 mm |
| CC/C=C/CC(=O)N[C@@H]1C(=O)N2[C@@H]1SC(C)(C)[C@@H]2C(=O)O [Penicillin F, penicillin F] | intermediate size zones | 21 |  |  |
| CC1(C)S[C@@H]2[C@H](NC(=O)COc3ccccc3)C(=O)N2[C@H]1C(=O)O [Penicillin V, penicillin V] | smaller zones | 7.5 | not |  |
| CC1(C)S[C@@H]2[C@H](NC(=O)Cc3ccc(O)cc3)C(=O)N2[C@H]1C(=O)O [Penicillin X, penicillin X] | Large zones of inhibition | 30.5 |  |  |
| CCCCC(=O)NC1C(=O)N2[C@@H]1SC(C)(C)[C@@H]2C(=O)O (stereo partly shown) [Valeryl-6-APA, valeryl-6-APA] | intermediate size zones | 15 |  |  |
| CC1(C)S[C@@H]2[C@H](NC(=O)Cc3cccc(C(=O)O)c3)C(=O)N2[C@H]1C(=O)O [m-carboxyphenylacetyl-6-APA] |  |  | not | in vitro substrate [3]: at very low levels |
| CCCCCCCC(=O)N[C@@H]1C(=O)N2[C@@H]1SC(C)(C)[C@@H]2C(=O)O [penicillin K] |  |  | not |  |
| CC1(C)S[C@@H]2[C@H](NC(=O)CCC[C@@H](N)C(=O)O)C(=O)N2[C@H]1C(=O)O [penicillin N] |  |  | expands the ring | substrate for expandase activity (C. acremonium expandase): substrates |
| CCCCCC(=O)N[C@@H]1C(=O)N2[C@@H]1SC(C)(C)[C@@H]2C(=O)O [penicillin dihydroF] |  |  | not |  |
| D-carboxymethylcysteinyl-6-APA |  |  |  | ability to expand [3]: some ability |
| D-glutamyl-6-APA |  |  | not | in vitro substrate [3]: at very low levels |
| glutamyl-6-APA |  |  |  | in vitro substrate [3]: at very low levels |
